# Test results taken from patent publication US12568972B2, “Pyridazinol compounds and derivatives, preparation methods, herbicidal compositions and applications thereof” (Qingdao Kingagroot Chemical Compound Co., Ltd., priority 2018, dated 2026).
# System: Amaranthus retroflexus
# Experiment: Post-emergence test, weed control effect
# Format: in vivo
# Conditions: Dose 3000 g/ha, after 3 weeks
# Excerpt: (§1) The activity level standard of harmful plant destruction (i.e. growth inhibition rate) is as follows: • Level 10: completely dead; • Level 9: above 90% growth inhibition rate; • Level 8: above 80% growth inhibition rate; • Level 7: above 70% growth inhibition rate; • Level 6: above 60% growth inhibition rate; • Level 5: above 50% growth inhibition rate; • Level 4: above 40% growth inhibition rate; • Level 3: above 30% growth inhibition rate; • Level 2: above 20% growth inhibition rate; • Level 1: below 20% growth inhibition rate; • Level 0: no effect.
# (§2) The above described growth inhibition rates are fresh weight inhibition rates.
# (§3) Experiment of post-emergence test: monocotyledonous and dicotyledonous weed seeds as well as main crop seeds (i.e., wheat, corn, rice, soybean, cotton, oilseed rape, millet and sorghum) were put into a plastic pot loaded with soil, then covered with 0.5-2 cm of soil, and the seeds were allowed to grow in good greenhouse environment. The test plants were treated at 2-3 leaf stage 2-3 weeks after sowing. The test compounds of the invention were dissolved in acetone respectively, then added with Tween-80 and diluted by a certain amount of water to give solutions with certain concentrations, and added with 80% vegetable oil methyl ester synergist at 1500 g/ha. The solution was sprayed to the plants with a sprayer. The plants were cultured for 3 weeks in the greenhouse.
SMILES,"weed control effect (activity level), Amaranthus retroflexus","weed control effect, Amaranthus retroflexus (activity level)"
Oc1cc(C(F)(F)F)nnc1-c1cc2ccccc2cn1 [Compound 743],10,
O=C(Oc1cc(C(F)(F)F)nnc1-c1ccc(F)cc1)c1cccc2ccsc12 [Compound 1-119],,10
CCc1cccc(-c2nnc(C(F)(F)F)cc2OS(=O)(=O)c2nc3ccccc3[nH]2)c1 [Compound 1-153],,10
Cn1ncc(I)c1-c1nnc(C(F)(F)F)cc1O [Compound 807],10,
Oc1cc(C(F)(F)F)nnc1-c1cccc2cc[nH]c12 [Compound 589],10,
CC(=O)Oc1ccccc1C(=O)Oc1cc(C(F)(F)F)nnc1-c1ccccc1 [Compound 1-87],,10
O=C(CCc1ccccc1)Oc1cc(C(F)(F)F)nnc1-c1ccc(F)cc1 [Compound 1-99],,10
CSCCC(=O)Oc1cc(C(F)(F)F)nnc1-c1ccc(F)c(F)c1 [Compound 1-77],,10
COC(=O)CCCCC(=O)Oc1cc(C(F)(F)F)nnc1-c1ccc(F)cc1 [Compound 1-70],,10
CCCCCCCCSC(=S)Oc1cc(C(F)(F)F)nnc1-c1ccc(F)c(F)c1 [Compound 1-163],,10
O=S(=O)(Oc1cc(C(F)(F)F)nnc1-c1ccc(F)c(F)c1)c1ccc2ncsc2c1 [Compound 1-147],,10
Oc1cc(C(F)(F)F)nnc1-c1cnc(Cl)cc1F [Compound 1007],10,
CCCCC(CCCC)=NOc1cc(C(F)(F)F)nnc1-c1cccc([N+](=O)[O-])c1 [Compound 1-178],,10
N#Cc1cncc(-c2nnc(C(F)(F)F)cc2O)c1 [Compound 984],10,
Cn1ncc(F)c1-c1nnc(C(F)(F)F)cc1O [Compound 804],10,
Oc1cc(C(F)(F)F)nnc1-c1ccc2cnccc2c1 [Compound 634],10,

# System: Veronica polita
# Experiment: Post-emergence test, weed control effect
# Format: in vivo
# Conditions: Dose 3000 g/ha, after 3 weeks
# Excerpt: as §1, §2, §3
SMILES,"weed control effect (activity level), Veronica polita","weed control effect, Veronica polita (activity level)"
Oc1cc(C(F)(F)F)nnc1-c1cc2ccccc2cn1 [Compound 743],10,
O=C(Oc1cc(C(F)(F)F)nnc1-c1ccc(F)cc1)c1cccc2ccsc12 [Compound 1-119],,10
CCc1cccc(-c2nnc(C(F)(F)F)cc2OS(=O)(=O)c2nc3ccccc3[nH]2)c1 [Compound 1-153],,10
Cn1ncc(I)c1-c1nnc(C(F)(F)F)cc1O [Compound 807],10,
Oc1cc(C(F)(F)F)nnc1-c1cccc2cc[nH]c12 [Compound 589],10,
CC(=O)Oc1ccccc1C(=O)Oc1cc(C(F)(F)F)nnc1-c1ccccc1 [Compound 1-87],,10
O=C(CCc1ccccc1)Oc1cc(C(F)(F)F)nnc1-c1ccc(F)cc1 [Compound 1-99],,10
CSCCC(=O)Oc1cc(C(F)(F)F)nnc1-c1ccc(F)c(F)c1 [Compound 1-77],,10
COC(=O)CCCCC(=O)Oc1cc(C(F)(F)F)nnc1-c1ccc(F)cc1 [Compound 1-70],,10
CCCCCCCCSC(=S)Oc1cc(C(F)(F)F)nnc1-c1ccc(F)c(F)c1 [Compound 1-163],,10
O=S(=O)(Oc1cc(C(F)(F)F)nnc1-c1ccc(F)c(F)c1)c1ccc2ncsc2c1 [Compound 1-147],,10
Oc1cc(C(F)(F)F)nnc1-c1cnc(Cl)cc1F [Compound 1007],10,
CCCCC(CCCC)=NOc1cc(C(F)(F)F)nnc1-c1cccc([N+](=O)[O-])c1 [Compound 1-178],,10
N#Cc1cncc(-c2nnc(C(F)(F)F)cc2O)c1 [Compound 984],10,
Cn1ncc(F)c1-c1nnc(C(F)(F)F)cc1O [Compound 804],10,
Oc1cc(C(F)(F)F)nnc1-c1ccc2cnccc2c1 [Compound 634],10,

# System: Rorippa indica
# Experiment: Post-emergence test, weed control effect
# Format: in vivo
# Conditions: Dose 3000 g/ha, after 3 weeks
# Excerpt: as §1, §2, §3
SMILES,"weed control effect (activity level), Rorippa indica","weed control effect, Rorippa indica (activity level)"
Oc1cc(C(F)(F)F)nnc1-c1cc2ccccc2cn1 [Compound 743],10,
O=C(Oc1cc(C(F)(F)F)nnc1-c1ccc(F)cc1)c1cccc2ccsc12 [Compound 1-119],,10
CCc1cccc(-c2nnc(C(F)(F)F)cc2OS(=O)(=O)c2nc3ccccc3[nH]2)c1 [Compound 1-153],,10
Cn1ncc(I)c1-c1nnc(C(F)(F)F)cc1O [Compound 807],10,
Oc1cc(C(F)(F)F)nnc1-c1cccc2cc[nH]c12 [Compound 589],10,
CC(=O)Oc1ccccc1C(=O)Oc1cc(C(F)(F)F)nnc1-c1ccccc1 [Compound 1-87],,10
O=C(CCc1ccccc1)Oc1cc(C(F)(F)F)nnc1-c1ccc(F)cc1 [Compound 1-99],,10
CSCCC(=O)Oc1cc(C(F)(F)F)nnc1-c1ccc(F)c(F)c1 [Compound 1-77],,10
COC(=O)CCCCC(=O)Oc1cc(C(F)(F)F)nnc1-c1ccc(F)cc1 [Compound 1-70],,10
CCCCCCCCSC(=S)Oc1cc(C(F)(F)F)nnc1-c1ccc(F)c(F)c1 [Compound 1-163],,10
O=S(=O)(Oc1cc(C(F)(F)F)nnc1-c1ccc(F)c(F)c1)c1ccc2ncsc2c1 [Compound 1-147],,10
Oc1cc(C(F)(F)F)nnc1-c1cnc(Cl)cc1F [Compound 1007],10,
CCCCC(CCCC)=NOc1cc(C(F)(F)F)nnc1-c1cccc([N+](=O)[O-])c1 [Compound 1-178],,10
N#Cc1cncc(-c2nnc(C(F)(F)F)cc2O)c1 [Compound 984],10,
Cn1ncc(F)c1-c1nnc(C(F)(F)F)cc1O [Compound 804],10,
Oc1cc(C(F)(F)F)nnc1-c1ccc2cnccc2c1 [Compound 634],10,

# System: Chenopodiaceae
# Experiment: Post-emergence test, weed control effect
# Format: in vivo
# Conditions: Dose 3000 g/ha, after 3 weeks
# Excerpt: as §1, §2, §3
SMILES,"weed control effect (activity level), Chenopodiaceae","weed control effect, Chenopodiaceae (activity level)"
Oc1cc(C(F)(F)F)nnc1-c1cc2ccccc2cn1 [Compound 743],10,
O=C(Oc1cc(C(F)(F)F)nnc1-c1ccc(F)cc1)c1cccc2ccsc12 [Compound 1-119],,10
CCc1cccc(-c2nnc(C(F)(F)F)cc2OS(=O)(=O)c2nc3ccccc3[nH]2)c1 [Compound 1-153],,10
Cn1ncc(I)c1-c1nnc(C(F)(F)F)cc1O [Compound 807],10,
Oc1cc(C(F)(F)F)nnc1-c1cccc2cc[nH]c12 [Compound 589],10,
CC(=O)Oc1ccccc1C(=O)Oc1cc(C(F)(F)F)nnc1-c1ccccc1 [Compound 1-87],,10
O=C(CCc1ccccc1)Oc1cc(C(F)(F)F)nnc1-c1ccc(F)cc1 [Compound 1-99],,10
CSCCC(=O)Oc1cc(C(F)(F)F)nnc1-c1ccc(F)c(F)c1 [Compound 1-77],,10
COC(=O)CCCCC(=O)Oc1cc(C(F)(F)F)nnc1-c1ccc(F)cc1 [Compound 1-70],,10
CCCCCCCCSC(=S)Oc1cc(C(F)(F)F)nnc1-c1ccc(F)c(F)c1 [Compound 1-163],,10
O=S(=O)(Oc1cc(C(F)(F)F)nnc1-c1ccc(F)c(F)c1)c1ccc2ncsc2c1 [Compound 1-147],,10
Oc1cc(C(F)(F)F)nnc1-c1cnc(Cl)cc1F [Compound 1007],10,
CCCCC(CCCC)=NOc1cc(C(F)(F)F)nnc1-c1cccc([N+](=O)[O-])c1 [Compound 1-178],,10
N#Cc1cncc(-c2nnc(C(F)(F)F)cc2O)c1 [Compound 984],10,
Cn1ncc(F)c1-c1nnc(C(F)(F)F)cc1O [Compound 804],10,
Oc1cc(C(F)(F)F)nnc1-c1ccc2cnccc2c1 [Compound 634],10,
